Reference: patent US20250186379A1, “METHODS AND AGENTS FOR DECREASING INSULIN RESISTANCE” (Whitehead Institute for Biomedical Research, priority 2021, published 2025)
“Also recorded” adds a separate entry of the source.

How the values were obtained:
IR condensates = test: Imaging of IR puncta/condensates (immunofluorescence, IR-GFP) in HepG2 cells; type: cell-based, human
Protocol: For insulin sensitivity and resistance experiments in HepG2 cells, cells were washed with EMEM once and cultured in EMEM for two days. […] To wash out insulin, cells were washed in EMEM seven times, which includes three quick washes, three 5 min washes and a long 20 minute-wash in EMEM at 37° C. In order to investigate insulin response, cells were acutely treated for 5 min with insulin diluted in EMEM supplemented with 1.25% fatty acid-free BSA at 37° C. with 5% CO2 in a humidified incubator.
Metformin (SIGMA, D150959-5G) was resuspended in sterile water to a concentration of 1M and diluted to the reported concentrations in the figures in cell media. […]
HepG2 cells, human liver spheroids and human tissue liver sections were fixed in 4% PFA (VWR, BT140770-10X10) in PBS for 10 min at room temperature. Cells were washed in PBS three times for 5 min and then blocked with 4% IgG-free BSA (VWR, 102643-516) for 15-60 min at room temperature. Cells were then incubated with 1:500 primary antibody in 4% IgG-free BSA at 4° C. overnight. The next day, cells were washed three times with PBS and incubated with 1:500 secondary antibodies in 4% IgG-free BSA at room temperature for 1 hr covered in foil. Cells were washed three times with PBS for 5 min. DNA was stained using 1:5000 Hoechst in PBS for 5 min at RT. Cells were washed three times with PBS for 5 min, stored at 4° C. until imaging. For tissue sections, samples were mounted using Vectashield mounting media (Vector Laboratories, Inc, H-1000). LSM880 microscope with Airyscan detector (ZEISS) was used for image acquisition. Images were then processed using Fiji/ImageJ v2.1.0/153c.
Cells expressing endogenous IR tagged with GFP were grown on 35 mm glass bottom dishes (MatTek Corporation, P35G-1.5-20-C). Cells were imaged at 37° C. using the SM880 Microscope with Airyscan detector with 63× objective and Zen Black software (ZEISS) at the W.M. Keck Microscopy Facility, MIT. Images were then processed using Fiji/ImageJ v2.1.0/153c.
To quantify IR fluorescent signal in puncta, Fiji/ImageJ v2.1.0/153c was used. A circle or an oval was drawn around IR puncta using the oval selection tool and the average fluorescence intensity in the circle/oval (=in the puncta) was determined using the measure tool on Fiji. Background was then subtracted as previously described. To quantify IR fluorescent signal at puncta in various cellular compartments, applicant identified the location of the plasma membrane, cytoplasm, nucleus and RNA FISH spots as follows. The plasma membrane location was identified based on IR immunofluorescence signal, IR-GFP fluorescent signal or CK18 immunofluorescence signal or cell edge. The nucleus was determined by the Hoechst stain for immunofluorescence and tc-PALM experiments or by IR-GFP fluorescence when HepG2 cells expressing IR-GFP were imaged. Given the overlap between Hoechst fluorescence and GFP fluorescence, artefactual green fluorescence coming from the Hoechst confounded IR puncta identification in the nucleus. Since the differences in IR puncta intensity and concentration between cytoplasm and nucleus in HepG2 cells was clear, nuclear outline was easily drawn based on IR-GFP fluorescent signal. Cytoplasm was considered the region between the plasma membrane and the nucleus. RNA FISH spots were identified based on RNA FISH probe fluorescence. Within the FISH spot, IR intensity was measured using the measure tool.
To estimate the number of IR puncta at the plasma membrane, cytoplasm, nucleus or in entire cells, IR puncta were initially counted in a cell slice using Fiji. The number obtained from the cell slice was then multiplied based on the estimated size of the plasma membrane, cytoplasm, nucleus or entire cell, which were obtained considering the length and width of the cell under investigation and the estimated height (˜5 um). […]

[1] = tested on: reactive oxygen species (ROS); test: Quantification of ROS using a ROS-sensitive dye in HepG2 cells; type: cell-based, human
Protocol: Cells expressing endogenous IR tagged with GFP were treated with ROS dye (Abcam, ab186029) following the manufacturer's instructions. […] Cells were incubated at 37° C. with 5% CO2 in a humidified incubator for 30 min. Cells were imaged at 37° C. using the LSM880 Microscope with Airyscan detector with 63×objective and Zen Black software (ZEISS) at the W.M. Keck Microscopy Facility, MIT. Images were then processed using Fiji/ImageJ v2.1.0/153c. Quantification of the ROS dye fluorescence intensity per cell was performed using Fiji. Using the polygon selection tool on Fiji/ImageJ v2.1.0/153c, a polygon was drawn around a cell outline, which was identified by looking at the IR-GFP channel. The average ROS dye fluorescence intensity in the polygon (=in the cell) was determined using the measure tool on Fiji/ImageJ v2.1.0/153c. […] Cells were incubated at 37° C. with 5% CO2 in a humidified incubator for 30 minutes. Cells were imaged at 37° C. using the LSM880 Microscope with Airyscan detector with 63× objective and Zen Black software (ZEISS) at the W.M. Keck Microscopy Facility, MIT. Images were then processed using Fiji/ImageJ v2.1.0/153c. Quantification of the ROS dye fluorescence intensity per cell was performed using Fiji. […] The average ROS dye fluorescence intensity in the polygon (=in the cell) was determined using the measure tool on Fiji/ImageJ v2.1.0/153c.

[2] = insulin sensitive HepG2 cells, acute 3 nM insulin
[3] = insulin resistant HepG2 cells, metformin concentration series (FIG. 5A,B)

TNFα
insulin-stimulated IR incorporation into puncta (IR condensates; HepG2 cells, 2 days pathological TNFα or high nutrients, 3 nM insulin 5 min (FIG. 27)): caused a decrease in insulin-stimulated IR incorporation into puncta | production of ROS ([1]; HepG2 cells (FIG. 27C), also refs 19,77-79): excessive production of ROS

insulin: insulin (Sigma Aldrich, I9278-5ML) used for acute stimulation and chronic physiological or pathological exposure
incorporation of additional IR into condensates/puncta (IR condensates; insulin resistant HepG2 cells, acute insulin (3 nM)): did not promote incorporation of additional IR into condensates; also recorded: did not promote incorporation of additional IR into puncta | IR signal intensity in puncta (IR condensates; [2]): caused an increase; also recorded: elevated IR-GFP signal in these puncta; also recorded: promotes an increase in IR-GFP signal in IR puncta | number of IR puncta in the cytoplasm and nucleus (IR condensates; [2]): caused an increase; also recorded: increased numbers of cytoplasmic and nuclear puncta; also recorded: an increase in the number of IR puncta in the nucleus and cytoplasm | IR-incorporation into condensates over a range of insulin concentrations (IR condensates; insulin-sensitive cells, 0, 0.1, 1, 10, 100 nM insulin 5 min (FIGS. 17G-17H)): non-linear transition

CN(C)C(=N)N=C(N)N [metformin, reference compound]
IR condensate rescue (IR condensates; insulin resistant HepG2 cells, 12.5 uM metformin): significant; also recorded: evident | intensity of IR signal in condensates (IR condensates; [3]): dose-dependent increase | number of IR containing condensates (IR condensates; [3]): dose-dependent increase | effect on IR condensates (IR condensates; insulin sensitive HepG2 cells, 50 nM metformin as printed (FIG. 13A)): little or no effect on IR condensates | IR signal in puncta (IR condensates; insulin-resistant IR-GFP HepG2 cells, 12.5 μM metformin, 3 nM insulin 5 min (FIGS. 16D-16E, 30A)): partially restored IR signal in these puncta | effect on IR puncta / IR condensates (IR condensates; insulin-sensitive HepG2 IR-GFP cells with or without metformin (50 μM in FIG. 30B), 3 nM insulin 5 min): little or no effect on IR puncta; also recorded: does not affect IR condensates in insulin sensitive cells | ROS levels (ROS-sensitive dye) ([1]; insulin resistant HepG2 cells, 12.5 μM metformin): reduced ROS levels to those found in insulin sensitive cells; also recorded: reduced ROS levels to those found in insulin-sensitive cells
